We go through 11 compounds from ChEMBL document CHEMBL1201862, “PubChem BioAssay data set” (2004).

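These data come from cells grown in 96-well plates and exposed to compound for 48 hours at five concentrations. At the GI50, growth is halved.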 Active and inactive are the calls of the source. Cut-off read from the data, not from the text of the source: active = GI50 up to about 1.1 µM and inactive = higher. Where only a bound is given, the exact number is not on record here.

Test systems include TK-10; UACC-62; SW-620; SNB-19; RPMI-8226; HOP-92; SK-MEL-2; HCC 2998; UACC-257; CCRF-CEM; OVCAR-8; M14; ACHN; A549; IGROV-1; SR; OVCAR-3; EKVX; PC-3.
Holding throughout (test): NCI-60 cell line screen, 48 h

With `CCCCCCCCCc1cc(=O)c2c(O)cccc2o1`, the GI50 in the assay with TK-10 is 54 µM (inactive); in the assay with UACC-62, 58.2 µM (inactive); in the assay with SW-620, 57.9 µM (inactive); with SNB-19, 74.3 µM (inactive); with RPMI-8226, 38.2 µM (inactive); with HOP-92, 57.5 µM (inactive). Moreover, the GI50 in the assay with SK-MEL-2 is 23.2 µM (inactive); in the assay with HCC 2998 it was 65 µM (inactive); with UACC-257, 36.3 µM (inactive); with CCRF-CEM it was 30.8 µM (inactive); with OVCAR-8 it was 38.7 µM (inactive); in the assay on M14, 39.4 µM (inactive). For the same compound, the GI50 in the assay with ACHN is 42.7 µM (inactive); in the assay with A549, 41.8 µM (inactive); in the assay with IGROV-1, 79.6 µM (inactive); in the assay on SR, 37.4 µM (inactive); in the assay on OVCAR-3, 75.9 µM (inactive); in the assay on EKVX, 51.8 µM (inactive).

As for `COC(=O)Cc1cc(OC)c(OC)cc1Br`, the GI50 in the assay on TK-10, in the assay with UACC-62, with SW-620, in the assay on SNB-19, in the assay with RPMI-8226 and in the assay on HOP-92 was > 100 µM (inactive) each time. In addition, the GI50 in the assay with SK-MEL-2, with HCC 2998, in the assay on UACC-257, in the assay with CCRF-CEM, with OVCAR-8 and with M14 was > 100 µM (inactive) each time. Moreover, the GI50 in the assay on ACHN, with A549, in the assay with SR, in the assay with OVCAR-3 and in the assay with EKVX was > 100 µM (inactive) throughout.

Take `NNc1ncc2c(n1)-c1ccccc1OC2`: the GI50 in the assay on TK-10 is > 100 µM (inactive); in the assay with UACC-62, 63.7 µM (inactive); in the assay on SW-620, 69.7 µM (inactive); with SNB-19 it was > 100 µM (inactive); in the assay with RPMI-8226, 38.2 µM (inactive); in the assay on HOP-92, 24.7 µM (inactive). In addition, the GI50 with SK-MEL-2 was > 100 µM (inactive); with PC-3, 47.2 µM (inactive); with UACC-257 it was > 100 µM (inactive); in the assay with CCRF-CEM it was 17.3 µM (inactive); with OVCAR-8 it was 44.4 µM (inactive); with M14 it was 52.4 µM (inactive). Moreover, the GI50 is 42.2 µM (inactive) with ACHN; 96.2 µM (inactive) in the assay with A549; 31 µM (inactive) in the assay on IGROV-1; 27.8 µM (inactive) with SR; 22.2 µM (inactive) with OVCAR-3; 49.4 µM (inactive) in the assay with EKVX.

`O=C(OC1C(Oc2ccccc2COC(=O)C2(O)C=CCCC2=O)OC(CO)C(O)C1O)c1ccccc1` (configuration not stated): the GI50 in the assay with TK-10 is 31.3 µM (inactive); in the assay with UACC-62, 40.2 µM (inactive); in the assay on SW-620, 24.7 µM (inactive); in the assay on SNB-19 it was 40.9 µM (inactive); in the assay on RPMI-8226, 13.5 µM (inactive); in the assay with HOP-92, 0.094 µM (active). Further, the GI50 in the assay on SK-MEL-2 is 65.8 µM (inactive); with PC-3, 28.4 µM (inactive); with UACC-257, 46.5 µM (inactive); with OVCAR-8, 36.7 µM (inactive); with M14 it was 35 µM (inactive); in the assay with ACHN, 34.2 µM (inactive). In addition, the GI50 was 7.05 µM (inactive) in the assay with A549, 25.6 µM (inactive) in the assay on IGROV-1 and 19.4 µM (inactive) in the assay with SR.

`NC1=NS(=O)(=O)Nc2[nH]c(-c3ccccc3)nc21`: the GI50 in the assay with TK-10, with UACC-62, in the assay with SW-620, with SNB-19, with RPMI-8226 and with HOP-92 was > 100 µM (inactive) in each case. Besides, the GI50 in the assay on SK-MEL-2, in the assay with HCC 2998, with UACC-257, in the assay on CCRF-CEM, in the assay with OVCAR-8 and in the assay with M14 was > 100 µM (inactive) each time. Further, the GI50 with ACHN, in the assay on A549, with IGROV-1, with SR, in the assay with OVCAR-3 and in the assay on EKVX was > 100 µM (inactive) in each case.

Take `C[N+](C)(C)CC(=O)N/N=C/c1oc(-c2cccc([N+](=O)[O-])c2)c(-c2cccc([N+](=O)[O-])c2)c1[N+](=O)[O-]`: the GI50 is > 100 µM (inactive) in the assay on TK-10; 29.5 µM (inactive) in the assay on UACC-62; 31.3 µM (inactive) in the assay on SW-620; 85.9 µM (inactive) with SNB-19; 21.7 µM (inactive) with RPMI-8226; > 100 µM (inactive) in the assay on HOP-92. Further, the GI50 was > 100 µM (inactive) in the assay on SK-MEL-2; > 100 µM (inactive) in the assay on HCC 2998; > 100 µM (inactive) with UACC-257; 35.2 µM (inactive) in the assay with CCRF-CEM; 70.8 µM (inactive) in the assay on OVCAR-8; > 100 µM (inactive) in the assay with M14. Moreover, the GI50 is > 100 µM (inactive) with ACHN; > 100 µM (inactive) in the assay on A549; 95.5 µM (inactive) in the assay with IGROV-1; 40.1 µM (inactive) in the assay with SR; > 100 µM (inactive) in the assay on EKVX.

On to `Cc1c(Cl)cccc1NC(=O)c1cccc([N+](=O)[O-])c1O`, for which the GI50 in the assay on TK-10 is 41.8 µM (inactive); with UACC-62, 2.18 µM (inactive); in the assay on SW-620, 28.2 µM (inactive); in the assay with SNB-19 it was 8.55 µM (inactive); with RPMI-8226, 3.24 µM (inactive); with HOP-92 it was 2.37 µM (inactive). Further, the GI50 in the assay with SK-MEL-2 is 10.7 µM (inactive); in the assay on HCC 2998, 7.18 µM (inactive); in the assay on UACC-257 it was 8.51 µM (inactive); in the assay with CCRF-CEM it was 4.2 µM (inactive); with OVCAR-8, 21 µM (inactive); in the assay with M14, 16.8 µM (inactive). The GI50 was 7.83 µM (inactive) in the assay with ACHN; 11.4 µM (inactive) with A549; 5.83 µM (inactive) with IGROV-1; 22.3 µM (inactive) in the assay with SR; 5.71 µM (inactive) with OVCAR-3; 16 µM (inactive) in the assay on EKVX.

For `CC(=O)c1c(P(=O)(OC(C)C)OC(C)C)nn(-c2ccc([N+](=O)[O-])cc2)c1C`, the GI50 in the assay with TK-10, with UACC-62, in the assay on SW-620, in the assay on SNB-19, with RPMI-8226 and with HOP-92 was > 100 µM (inactive) throughout. In addition, the GI50 in the assay with SK-MEL-2, with HCC 2998, in the assay on UACC-257, with CCRF-CEM, in the assay with OVCAR-8 and in the assay on M14 was > 100 µM (inactive) throughout. The GI50 with ACHN, with A549, with IGROV-1, in the assay on SR, with OVCAR-3 and in the assay with EKVX was > 100 µM (inactive) each time.

As for `C/C=C\C(CC(=O)NCCC1CN(C(=O)OCc2ccccc2)c2ccccc21)CC(=O)OC` (configuration not stated), the GI50 is > 100 µM (inactive) in the assay on TK-10; > 100 µM (inactive) in the assay with UACC-62; > 100 µM (inactive) in the assay with SW-620; > 100 µM (inactive) with SNB-19; 79.4 µM (inactive) with RPMI-8226; 72.1 µM (inactive) with HOP-92. Further, the GI50 is > 100 µM (inactive) in the assay with SK-MEL-2; 99.8 µM (inactive) in the assay with PC-3; > 100 µM (inactive) in the assay with HCC 2998; > 100 µM (inactive) in the assay on UACC-257; > 100 µM (inactive) in the assay with CCRF-CEM; > 100 µM (inactive) in the assay on OVCAR-8. Moreover, the GI50 in the assay on M14, in the assay on ACHN, in the assay with A549, with IGROV-1, in the assay on OVCAR-3 and in the assay on EKVX was > 100 µM (inactive) each time.

`Cc1cc(-c2[nH]c(C(=O)O)cc2I)on1`: the GI50 in the assay with TK-10 was > 100 µM (inactive); in the assay with UACC-62, 53.8 µM (inactive); in the assay with SW-620, > 100 µM (inactive); with SNB-19, 31 µM (inactive); in the assay on RPMI-8226 it was > 100 µM (inactive); with HOP-92, 9.33 µM (inactive). Moreover, the GI50 with SK-MEL-2 is > 100 µM (inactive); in the assay with PC-3 it was > 100 µM (inactive); in the assay on HCC 2998, > 100 µM (inactive); in the assay on UACC-257 it was > 100 µM (inactive); in the assay with OVCAR-8, 20.2 µM (inactive); in the assay on M14, 80 µM (inactive). Further, the GI50 with ACHN is 91.4 µM (inactive); in the assay with A549 it was 56.6 µM (inactive); in the assay with IGROV-1 it was 12.5 µM (inactive); with OVCAR-3 it was > 100 µM (inactive); with EKVX, 51.6 µM (inactive).

Regarding `NC1=NN(c2ccccc2)C(=O)C1/C(=N\NC(=O)c1cc2ccccc2cc1O)C(=O)Nc1ccc(Cl)c(Cl)c1` (configuration not stated), the GI50 in the assay with TK-10 is 55.6 µM (inactive); with UACC-62, 17.7 µM (inactive); with SW-620, 33.1 µM (inactive); with SNB-19, 25.4 µM (inactive); with RPMI-8226, 26 µM (inactive); with HOP-92 it was 32.7 µM (inactive). Also, the GI50 with SK-MEL-2 is 55.7 µM (inactive); with HCC 2998 it was 43 µM (inactive); in the assay with UACC-257, 29.7 µM (inactive); in the assay on CCRF-CEM, 10.1 µM (inactive); in the assay with OVCAR-8, 17.3 µM (inactive); with M14, 19.6 µM (inactive). Moreover, the GI50 with ACHN is 28.3 µM (inactive); in the assay on A549 it was 42.8 µM (inactive); in the assay on IGROV-1 it was 28.4 µM (inactive); with SR, 0.0612 µM (active); with OVCAR-3, 5.57 µM (inactive); in the assay on EKVX, 14.4 µM (inactive).
